Test results published in the supplement of paper PMC7214452.

Tests used:
Assay in all cases: normalized area under the dose-response curve (viability relative to DMSO control) (fraction); higher = less sensitive (more viable cells)
Details in all cases: exposure time not given
[1] = tested on: SU-DHL2 (cancer type: DLBCL)
Protocol: (§1)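 25 myeloma and 15 non-Hodgkin lymphoma cell lines were exposed to each of 76 drugs as 7-point log dilutions (0.01 nM–10 µM) in duplicate. Viability was read with CellTiter-Glo and normalised to DMSO (0.1%) and staurosporine (10 µM) plate controls. Normalised AUC was calculated by the trapezoidal method relative to the negative control.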

Se-Ax (cancer type: TCL) = tested on: Se-Ax (cancer type: TCL)
Protocol: as §1

[2] = tested on: OCI-MY5/Vec (cancer type: MM)
Protocol: as §1

[3] = tested on: OCI-LY1 (cancer type: DLBCL)
Protocol: as §1

[4] = tested on: SR-786 (cancer type: TCL)
Protocol: as §1

[5] = tested on: OCI-LY3 (cancer type: DLBCL)
Protocol: as §1

KMS18 (cancer type: MM) = tested on: KMS18 (cancer type: MM)
Protocol: as §1

MM1.S (cancer type: MM) = tested on: MM1.S (cancer type: MM)
Protocol: as §1

[6] = tested on: KMS28BM (cancer type: MM)
Protocol: as §1

OPM2 (cancer type: MM) = tested on: OPM2 (cancer type: MM)
Protocol: as §1

My-La (cancer type: TCL) = tested on: My-La (cancer type: TCL)
Protocol: as §1

SKMM2 (cancer type: MM) = tested on: SKMM2 (cancer type: MM)
Protocol: as §1

[7] = tested on: OCI-MY5/CRBN (cancer type: MM)
Protocol: as §1

[8] = tested on: HuT 78 (cancer type: TCL)
Protocol: as §1

MM1.R (cancer type: MM) = tested on: MM1.R (cancer type: MM)
Protocol: as §1

FR4 (cancer type: MM) = tested on: FR4 (cancer type: MM)
Protocol: as §1

JJN3 (cancer type: MM) = tested on: JJN3 (cancer type: MM)
Protocol: as §1

[9] = tested on: Karpas-299 (cancer type: TCL)
Protocol: as §1

[10] = tested on: KMS12PE (cancer type: MM)
Protocol: as §1

L363 (cancer type: MM) = tested on: L363 (cancer type: MM)
Protocol: as §1

KMS11 (cancer type: MM) = tested on: KMS11 (cancer type: MM)
Protocol: as §1

[11] = tested on: SU-DHL6 (cancer type: DLBCL)
Protocol: as §1

[12] = tested on: RPMI 8226 (cancer type: MM)
Protocol: as §1

[13] = tested on: JeKo-1 (cancer type: Mantle)
Protocol: as §1

LP1 (cancer type: MM) = tested on: LP1 (cancer type: MM)
Protocol: as §1

EJM (cancer type: MM) = tested on: EJM (cancer type: MM)
Protocol: as §1

[14] = tested on: JVM2 (cancer type: Mantle)
Protocol: as §1

XG2 (cancer type: MM) = tested on: XG2 (cancer type: MM)
Protocol: as §1

[15] = tested on: SU-DHL1 (cancer type: TCL)
Protocol: as §1

[16] = tested on: OCI-MY7 (cancer type: MM)
Protocol: as §1

[17] = tested on: Mino (cancer type: Mantle)
Protocol: as §1

KMS34 (cancer type: MM) = tested on: KMS34 (cancer type: MM)
Protocol: as §1

U266 (cancer type: MM) = tested on: U266 (cancer type: MM)
Protocol: as §1

AMO1 (cancer type: MM) = tested on: AMO1 (cancer type: MM)
Protocol: as §1

[18] = tested on: KMS28PE (cancer type: MM)
Protocol: as §1

[19] = tested on: OCI-LY19 (cancer type: DLBCL)
Protocol: as §1

KMS26 (cancer type: MM) = tested on: KMS26 (cancer type: MM)
Protocol: as §1

[20] = tested on: NCI-H929 (cancer type: MM)
Protocol: as §1

[21] = tested on: Granta-519 (cancer type: Mantle)
Protocol: as §1

[22] = tested on: OCI-MY5 (cancer type: MM)
Protocol: as §1

Row | SMILES | normalized area under the dose-response curve [1] | normalized area under the dose-response curve (Se-Ax (cancer type: TCL)) | normalized area under the dose-response curve [2] | normalized area under the dose-response curve [3] | normalized area under the dose-response curve [4] | normalized area under the dose-response curve [5] | normalized area under the dose-response curve (KMS18 (cancer type: MM)) | normalized area under the dose-response curve (MM1.S (cancer type: MM)) | normalized area under the dose-response curve [6] | normalized area under the dose-response curve (OPM2 (cancer type: MM)) | normalized area under the dose-response curve (My-La (cancer type: TCL)) | normalized area under the dose-response curve (SKMM2 (cancer type: MM)) | normalized area under the dose-response curve [7] | normalized area under the dose-response curve [8] | normalized area under the dose-response curve (MM1.R (cancer type: MM)) | normalized area under the dose-response curve (FR4 (cancer type: MM)) | normalized area under the dose-response curve (JJN3 (cancer type: MM)) | normalized area under the dose-response curve [9] | normalized area under the dose-response curve [10] | normalized area under the dose-response curve (L363 (cancer type: MM)) | normalized area under the dose-response curve (KMS11 (cancer type: MM)) | normalized area under the dose-response curve [11] | normalized area under the dose-response curve [12] | normalized area under the dose-response curve [13] | normalized area under the dose-response curve (LP1 (cancer type: MM)) | normalized area under the dose-response curve (EJM (cancer type: MM)) | normalized area under the dose-response curve [14] | normalized area under the dose-response curve (XG2 (cancer type: MM)) | normalized area under the dose-response curve [15] | normalized area under the dose-response curve [16] | normalized area under the dose-response curve [17] | normalized area under the dose-response curve (KMS34 (cancer type: MM)) | normalized area under the dose-response curve (U266 (cancer type: MM)) | normalized area under the dose-response curve (AMO1 (cancer type: MM)) | normalized area under the dose-response curve [18] | normalized area under the dose-response curve [19] | normalized area under the dose-response curve (KMS26 (cancer type: MM)) | normalized area under the dose-response curve [20] | normalized area under the dose-response curve [21] | normalized area under the dose-response curve [22]
1 | CO[C@H]1C[C@@H]2CC[C@@H](C)[C@@](O)(O2)C(=O)C(=O)N2CCCC[C@H]2C(=O)O[C@H]([C@H](C)C[C@@H]2CC[C@@H](OCCO)[C@H](OC)C2)CC(=O)[C@H](C)/C=C(\C)[C@@H](O)[C@@H](OC)C(=O)[C@H](C)C[C@H](C)/C=C/C=C/C=C/1C [Everolimus] | 0.566 | 0.545 | 0.819 | 0.665 | 0.729 | 0.785 | 0.617 | 0.63 | 0.813 | 0.593 | 0.711 | 0.802 | 0.829 | 0.699 | 0.63 | 0.758 | 0.656 | 0.682 | 0.72 | 0.627 | 0.674 | 0.685 | 0.769 | 0.876 | 0.831 | 0.661 | 0.64 | 0.505 | 0.639 | 0.83 | 0.72 | 0.557 | 0.606 | 0.637 | 0.699 | 0.592 | 0.76 | 0.71 | 0.783 | 0.676
2 | Nc1nc(F)nc2c1ncn2[C@@H]1O[C@H](COP(=O)(O)O)[C@@H](O)[C@@H]1O [Fludarabine phosphate] | 0.918 | 0.798 | 1 | 0.866 | 0.914 | 0.962 | 0.894 | 0.87 | 0.834 | 0.859 | 0.879 | 0.88 | 0.972 | 0.911 | 0.92 | 0.858 | 0.934 | 0.885 | 0.94 | 0.781 | 0.746 | 0.927 | 0.767 | 0.912 | 0.938 | 0.882 | 0.855 | 0.857 | 0.888 | 0.95 | 0.844 | 0.785 | 0.812 | 0.813 | 0.767 | 1.02 | 0.863 | 0.9 | 0.949 | 0.788
3 | C=CC(=O)N1CCC[C@@H](n2nc(-c3ccc(Oc4ccccc4)cc3)c3c(N)ncnc32)C1 [Ibrutinib] | 0.903 | 0.739 | 0.88 | 0.636 | 0.825 | 0.829 | 0.916 | 0.81 | 0.786 | 0.676 | 0.782 | 0.922 | 0.937 | 0.928 | 0.77 | 0.793 | 0.728 | 0.845 | 0.74 | 0.759 | 0.738 | 0.852 | 0.765 | 0.686 | 0.892 | 0.857 | 0.668 | 0.863 | 0.746 | 1 | 0.681 | 0.518 | 0.726 | 0.715 | 0.723 | 0.865 | 0.763 | 0.84 | 0.798 | 0.628
4 | COc1cc(C(=O)O)ccc1NC(=O)[C@@H]1N[C@@H](CC(C)(C)C)[C@](C#N)(c2ccc(Cl)cc2F)[C@H]1c1cccc(Cl)c1F [Idasanutlin] | 0.961 | 0.82 | 0.902 | 0.959 | 0.861 | 0.967 | 0.831 | 0.81 | 0.935 | 0.861 | 0.937 | 0.962 | 0.852 | 0.825 | 0.84 | 0.837 | 0.88 | 0.86 | 0.96 | 0.834 | 0.868 | 0.898 | 0.943 | 0.852 | 0.955 | 0.858 | 0.832 | 0.838 | 0.877 | 0.92 | 0.928 | 0.751 | 0.773 | 0.732 | 0.922 | 0.92 | 0.798 | 0.79 | 0.873 | 0.834
5 | CC[C@H](Nc1ncnc2[nH]cnc12)c1nc2cccc(F)c2c(=O)n1-c1ccccc1 [Idelalisib] | 0.962 | 0.731 | 0.903 | 0.737 | 0.916 | 0.809 | 0.978 | 0.78 | 0.818 | 0.931 | 0.81 | 0.897 | 0.941 | 0.85 | 0.74 | 0.872 | 0.834 | 0.891 | 0.85 | 0.815 | 0.87 | 0.694 | 0.826 | 0.842 | 0.832 | 0.942 | 0.606 | 0.832 | 0.782 | 0.89 | 0.882 | 0.728 | 0.859 | 0.831 | 0.879 | 0.806 | 0.876 | 0.78 | 0.78 | 0.742
6 | Cc1ccc(NC(=O)c2ccc(CN3CCN(C)CC3)cc2)cc1Nc1nccc(-c2cccnc2)n1 [Imatinib] | 0.943 | 0.79 | 0.804 | 1 | 0.934 | 0.935 | 0.807 | 0.88 | 0.902 | 0.752 | 0.98 | 0.926 | 0.892 | 0.9 | 0.84 | 0.816 | 0.789 | 0.876 | 0.9 | 0.749 | 0.714 | 0.92 | 0.885 | 0.915 | 0.785 | 0.887 | 0.759 | 0.839 | 0.774 | 0.93 | 0.958 | 0.562 | 0.783 | 0.789 | 0.79 | 0.928 | 0.918 | 0.93 | 0.943 | 0.793
7 | Nc1cccc2c1CN(C1CCC(=O)NC1=O)C2=O (stereo not given) [Lenalidomide] | 0.785 | 0.709 | 0.999 | 0.825 | 0.992 | 0.802 | 0.805 | 0.66 | 0.819 | 0.846 | 0.944 | 0.874 | 0.928 | 0.828 | 0.68 | 0.852 | 0.822 | 0.875 | 0.74 | 0.785 | 0.758 | 0.847 | 0.915 | 0.874 | 0.847 | 0.836 | 0.657 | 0.861 | 0.812 | 0.78 | 0.897 | 0.662 | 0.858 | 0.799 | 0.899 | 0.758 | 0.785 | 0.74 | 0.891 | 0.786
8 | COc1cc2nccc(Oc3ccc(NC(=O)NC4CC4)c(Cl)c3)c2cc1C(N)=O [Lenvatinib] | 0.937 | 0.883 | 0.949 | 0.936 | 0.953 | 0.931 | 0.977 | 0.88 | 0.877 | 0.892 | 0.94 | 0.943 | 0.944 | 0.866 | 0.85 | 1.02 | 0.897 | 0.885 | 0.94 | 0.88 | 0.814 | 0.964 | 0.918 | 0.938 | 0.863 | 0.97 | 0.723 | 0.905 | 0.909 | 0.92 | 0.97 | 0.912 | 0.992 | 0.963 | 0.877 | 0.87 | 0.884 | 0.92 | 0.948 | 0.84
